# Results from US8932581B2, “Calcium-mediated effects of coral and methods of use thereof” (Ben Gurion University of the Negev Research and Development …, priority 2007, dated 2015).
# Test system: mesenchymal stem cells (MSCs)
# Test: Scanning Electron Micrographs of MSC density on coral biomatrices with and without calcium chelator
# Assay type: cell-based, Mus-musculus
# Conditions: incubation with the calcium chelator; FIGS. 2Aj, 2Al
# Experimental: Two biomaterial derivatives were prepared, one from the hydrocoral M. dichotoma (designated MIL) and the other, for purposes of comparison, from scleractinian coral P. lutea—(designated POR). Colonies of M. dichotoma were collected from the shallow seawater zones adjacent to the Interuniversity Institute of Marine Science (IUD in Eilat, Israel, at depths of 6-8 meters. Each colony was cut into fragments and glued with epoxy resin into the tops of PVC tubes. After an adjustment period of 3 months, cloned fragments were transferred to a laboratory tank system. POR were prepared from cores drilled out from long-lived massive colonies.
# Both types of skeleton were cut into blocks and bleached using a commercial hypochloride solution. After this preliminary cleaning process, samples were rinsed with distilled water and air-dried. […]
# Images were acquired using an Axiovert-200 (Zeiss, Germany) inverted microscope equipped with X20 Plan-Neofluar (N.A. 0.50) and X40 LD-Acrhoplan objectives (N.A. 0.60) and a cooled CCD camera (SensiCam, PCO, USA) controlled by Metamorph (version 6.2, Universal Imaging, Downingtown, Pa.). […] Cells were counted manually, and the numbers were averaged and interpolated for 1 mm^2 of crystalline surface.
smiles,measurement,value
"O=C(O)CN(CCOCCOCCN(CC(=O)O)CC(=O)O)CC(=O)O [EGTA, O,O′-bis(2-aminoethyl)ethyleneglycol tetraacetic acid]","local cell density on coral seeded with MSCs, effect of calcium chelator",further increased local cell density
